Data on one compound can be found in patent EP4685228A1, “MEDIUM COMPOSITION FOR PROMOTING MUSCLE CELL DIFFERENTIATION COMPRISING QUERCETIN AS ACTIVE INGREDIENT” (Industry Academic Cooperation Foundation of Yeungnam …, priority 2023, dated 2024).

The structures appear in SMILES notation.

Holding throughout (format): cell-based
Test [1] has as its system chicken muscle stem cell. Description: muscle cell proliferation (microscope, MTS analysis). As to conditions: various concentrations, cultured for 4 days, FIGS. 3 and 4. On the procedure:
(§1) Mouse myoblast cell line (C2C12) used was purchased from American Type Culture Collection (ATCC). Muscle stem cells were collected from leg muscles of cows, pigs, and chickens, minced, and reacted with 1% Pronase enzyme at 37°C for 2 hours, followed by centrifugation at 1,000 g for 3 minutes. After centrifugation, the supernatant was removed, and the tissue was suspended in Dulbecco's Modified Eagle's Medium (DMEM) supplemented with 1% penicillin/streptomycin (hereinafter referred to as P/S) and 10% fetal bovine serum (hereinafter referred to as FBS), and then the tissue and cells were separated through a 100 µm filter. The separated cells were centrifuged at 1,000 g for 5 minutes, the supernatant was removed, and the cells were suspended in Ham's F10 growth medium containing 1% P/S, 20% FBS, and 5 ng/mL fibroblast growth factor 2 (FGF2), after which cells were transferred to a cell culture dish and cultured at 37°C in the presence of 5% CO2.
(§2) To identify the effect of quercetin on muscle stem cell proliferation, myoblasts and muscle stem cells being cultured in proliferation medium (Ham's F10 containing 1% P/S, 20% FBS, and 5 ng/mL FGF2) were treated with various concentrations of quercetin and cultured for 4 days. To compare proliferation rates, MTS analysis was performed. Myoblasts and muscle stem cells were cultured in a proliferation medium for 4 days, and after removing all of the medium, a culture medium in which proliferation medium and MTS reagent are mixed in a ratio of 8:2 was treated to the cells, followed by a reaction for 1 hour. The reacted culture medium was transferred to a 96-well microplate in a volume of 100 µL, and the absorbance of the culture medium contained in each well was measured at 490 nm using a microplate.
(§3) According to the Experimental Example 2, in order to identify the effect of quercetin on muscle cell proliferation, quercetin was added at various concentrations during the proliferation culture of myoblasts and muscle stem cells, and after culturing for 4 days, observation was made under a microscope, followed by MTS analysis for comparison of the proliferation rate.

Test [2] relates to porcine muscle stem cell. Described as above. The conditions noted are these: various concentrations, cultured for 4 days, FIGS. 3 and 4. On the procedure: as §1, §2, §3
Test [3] deals with Mouse myoblast cell line (C2C12). The description is as above. The conditions noted are these: various concentrations, cultured for 4 days, FIGS. 3 and 4. On the procedure: as §1, §2, §3
The test system of test [4] is bovine muscle stem cell. The description is as above. The conditions noted are these: various concentrations, cultured for 4 days, FIGS. 3 and 4. Here is the method: as §1, §2, §3
Test [5] concerns Mouse myoblast cell line (C2C12). Description: muscle cell differentiation (microscope, creatine kinase activity).
Method: To determine the effect of quercetin on muscle stem cell differentiation, myoblasts and muscle stem cells being differentiated were treated with different concentrations of quercetin in differentiation medium (Ham's F10 containing 1% P/S, 20% FBS, and 5 ng/mL FGF2) and cultured for 4 days. To compare differentiation rates, creatine kinase activity was analyzed. Myoblasts and muscle stem cells were cultured in differentiation medium for 4 days, then all media were removed, followed by washing with phosphate buffer saline (PBS), 200 µL of new saline was added, and the cells were scraped and collected. Afterwards, the cells were disrupted through sonication, and the supernatant was separated through centrifugation. For analysis of creatine kinase activity, a mixture (100 µL of buffer, 10 µL of substrate, and 1 µL of enzyme) was prepared, and 100 µL of the mixture was treated to 10 µL of the supernatant. Afterwards, the absorbance at 340 nm was measured at 20 and 25 minutes after the start of the reaction using a microplate reader, and the value of creatine kinase activity (U/L) was calculated using the following Equation 1. [formula] […]
The subject of test [6] is muscle differentiation-related factors (MYOD, MYOG, and MYH). The experiment in a line: gene and protein expression of muscle differentiation-related factors (real-time PCR, Western blot). As to conditions: 10 nM quercetin, FIG. 7. On the procedure:
1 mL of TRIzol (TRIzol™) reagent was added to the cultured cells, and the cells were crushed. 200 µLof chloroform was added to the crushed cells, and centrifugation was performed at 12,000 rpm for 10 minutes. After centrifugation, the upper clear water layer was transferred to a new tube, followed by addition of 500 µLof isopropanol. Afterwards, the mixture was mixed sufficiently and centrifuged at 12,000 rpm for 10 minutes. Thereafter, all supernatants except the RNA pellet were removed, and 1 mL of 70% ethanol was added, followed by washing. Afterwards, all ethanol was removed, and the RNA pellet was dissolved in distilled water containing diethylpyrocarbonate (hereinafter referred to as DEPC). The obtained RNA was quantified using a spectrophotometer, and then 2 µg of total RNA was reacted with reverse transcriptase to synthesize cDNA.
To identify an effect of quercetin on gene expression of muscle differentiation-related factors [myoblast determination protein 1 (hereinafter referred to as MYOD), myogenin (hereinafter referred to as MYOG), and myosin heavy chain (hereinafter referred to as MYH)], real-time PCR was performed. Synthesized cDNA and primers designed using NCBI's primer blast tool; and reagents containing SYBR green fluorescent substance were mixed. Real-time PCR was analyzed via the 7500 real-time PCR from Applied Biosystems.
To determine the effect of quercetin on the protein expression of muscle differentiation-related factors (MYOD, MYOG, and MYH), Western blot was performed. All media of cells being cultured were removed and washed with saline solution. A mixture containing RIPA buffer and 1% protease inhibitor was added to the cells and scraped. After centrifugation at 12,000 rpm for 10 minutes, the supernatant was recovered and quantified using a spectrophotometer. 60 µg of the extracted protein was electrophoresed on a 10% acrylamide gel and transferred to a polyvinylidene fluoride (PVDF) membrane (Milipore). Blocking was performed for 1 hour in tris-buffered saline (TBS) buffer containing 3% skim milk and 1% surfactant (tween-20), and the primary antibody was added. After reacting for 16 hours at 4°C, washing was performed three times for 10 minutes in TBS buffer containing 1% surfactant (Tween-20), followed by a reaction with the secondary antibody for 1 hour at room temperature. Afterwards, washing was performed three times for 10 minutes in TBS buffer containing 1% surfactant (tween-20), followed by development after adding Super Signal West Pico Chemiluminescent Substrate.
According to the above Experimental Example 4, to identify the effect of quercetin on the expression of factors related to muscle differentiation, 10 nM quercetin was added to the process of differentiating myoblasts and muscle stem cells, and gene and protein expression of the factors was analyzed.
(In general: In qPCR the cycle at which signal appears reflects the starting amount.)

Test [7] concerns chicken muscle stem cell. The experiment in a line: muscle cell differentiation (microscope, creatine kinase activity). The conditions noted are these: 4 days. On the procedure: as §1
(§4) To determine the effect of quercetin on muscle stem cell differentiation, myoblasts and muscle stem cells being differentiated were treated with different concentrations of quercetin in differentiation medium ([…]) and cultured for 4 days. To compare differentiation rates, creatine kinase activity was analyzed. Myoblasts and muscle stem cells were cultured in differentiation medium for 4 days, then all media were removed, followed by washing with phosphate buffer saline (PBS), 200 µL of new saline was added, and the cells were scraped and collected. Afterwards, the cells were disrupted through sonication, and the supernatant was separated through centrifugation. For analysis of creatine kinase activity, a mixture (100 µL of buffer, 10 µL of substrate, and 1 µL of enzyme) was prepared, and 100 µL of the mixture was treated to 10 µL of the supernatant. Afterwards, the absorbance at 340 nm was measured at 20 and 25 minutes after the start of the reaction using a microplate reader, and the value of creatine kinase activity (U/L) was calculated using the following Equation 1. [formula]
(§5) According to the Experimental Example 2, in order to identify the effect of quercetin on muscle cell differentiation, quercetin was added at various concentrations during differentiation culture of myoblasts and muscle stem cells, and after culturing for 4 days, observation was made under a microscope, followed by analysis of creatine kinase activity to compare the differentiation rate.

Test [8] has as its system porcine muscle stem cell. The description is as above. The conditions noted are these: 4 days. On the procedure: as §1, §4, §5
Test [9] relates to bovine muscle stem cell. The test is described as above. As to conditions: 4 days. Here is the method:
as §1, §4, §5

The mark [10] stands for this setting: 10 nM and 100 nM treatment groups, FIG. 5.

As for `O=c1c(O)c(-c2ccc(O)c(O)c2)oc2cc(O)cc(O)c12` [quercetin], the proliferation rate entry (with chicken muscle stem cell [1]; in the test with porcine muscle stem cell [2]; in test [3]; in the test on bovine muscle stem cell [4]) was “no significant change” throughout. Moreover, the diameter of myotubes entry in test [5] (mouse myoblast, 10 nM and 100 nM treatment groups, 4 days, FIG. 5) is reported as “increased”; in the test on chicken muscle stem cell [7] (setting [10]) it was “increased”; in the test with porcine muscle stem cell [8] (setting [10]) it was “increased”; in the test with bovine muscle stem cell [9] (setting [10]), “increased”. Moreover, the creatine kinase activity result is reported as “significantly increased” in test [5] (mouse myoblast, 10 nM and 100 nM, 4 days, FIG. 6); “significantly increased” in the test with chicken muscle stem cell [7] (10 nM and 100 nM, FIG. 6); “significantly increased” with porcine muscle stem cell [8] (10 nM and 100 nM, FIG. 6); “significantly increased” in the test with bovine muscle stem cell [9] (10 nM and 100 nM, FIG. 6). Moreover, the “creatine kinase activity increase compared to the control group (Con)” value in test [5] (mouse myoblasts, differentiation medium, quercetin 10 nM, antioxidant supplement diluted 1,000-fold, FIG. 8B) is 17%. The MYH expression result in test [6] (bovine muscle stem cells), in [6] (chicken muscle stem cells), in [6] (mouse myoblasts) and in test [6] (porcine muscle stem cells) was “significantly increased” each time. Further, the MYOD expression result in [6] (bovine muscle stem cells), in test [6] (mouse myoblasts) and in test [6] (porcine muscle stem cells) was “significantly increased” throughout. Further, the MYOG expression result in test [6] (bovine muscle stem cells), in test [6] (chicken muscle stem cells), in [6] (mouse myoblasts) and in test [6] (porcine muscle stem cells) was “significantly increased” throughout.
